Activity calls are given as the source filed them.
How the values were obtained:
Coagulation factor XII = molecular target: T1, Coagulation factor XII (Homo sapiens, UniProt P00748); format: functional;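 note: activated factor XIIa alpha cleaving a fluorogenic AMC peptide substrate; inhibitor potency from loss of enzyme activity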
T1 sequence (P00748 whole entry): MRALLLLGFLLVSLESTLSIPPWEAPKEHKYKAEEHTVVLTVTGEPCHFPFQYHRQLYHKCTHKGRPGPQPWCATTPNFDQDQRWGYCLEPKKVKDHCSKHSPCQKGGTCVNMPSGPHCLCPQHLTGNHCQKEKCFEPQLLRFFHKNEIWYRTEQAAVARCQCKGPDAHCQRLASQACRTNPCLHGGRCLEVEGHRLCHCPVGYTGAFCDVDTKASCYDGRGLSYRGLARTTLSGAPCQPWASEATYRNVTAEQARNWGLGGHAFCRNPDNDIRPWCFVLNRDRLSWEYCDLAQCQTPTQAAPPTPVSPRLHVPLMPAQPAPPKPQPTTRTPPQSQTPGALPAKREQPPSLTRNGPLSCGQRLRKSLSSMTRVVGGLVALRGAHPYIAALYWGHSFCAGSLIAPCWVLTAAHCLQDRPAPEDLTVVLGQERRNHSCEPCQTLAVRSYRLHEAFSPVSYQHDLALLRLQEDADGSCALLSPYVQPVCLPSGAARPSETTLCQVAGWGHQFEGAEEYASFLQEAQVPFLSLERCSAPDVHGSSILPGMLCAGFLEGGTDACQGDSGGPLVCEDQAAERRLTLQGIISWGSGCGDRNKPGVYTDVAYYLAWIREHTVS

Prothrombin = Prothrombin (Homo sapiens, UniProt P00734); assay: Thrombin 1536 HTS Dose Response Confirmation. [Related pubchem assays: 1046 (Thrombin 1536 HTS; hits were confirmed in this assay)]; format: functional
Leucine aminopeptidase = molecular target: T2, Leucine aminopeptidase (Plasmodium falciparum 3D7, UniProt Q8IL11); assay: P. falciparum M17LAP inhibitors, primary screen, biochemical, fluorogenic H-Leu-NHMec substrate, 1536-well (AID 1619); format: functional
T2 sequence (Q8IL11 whole entry): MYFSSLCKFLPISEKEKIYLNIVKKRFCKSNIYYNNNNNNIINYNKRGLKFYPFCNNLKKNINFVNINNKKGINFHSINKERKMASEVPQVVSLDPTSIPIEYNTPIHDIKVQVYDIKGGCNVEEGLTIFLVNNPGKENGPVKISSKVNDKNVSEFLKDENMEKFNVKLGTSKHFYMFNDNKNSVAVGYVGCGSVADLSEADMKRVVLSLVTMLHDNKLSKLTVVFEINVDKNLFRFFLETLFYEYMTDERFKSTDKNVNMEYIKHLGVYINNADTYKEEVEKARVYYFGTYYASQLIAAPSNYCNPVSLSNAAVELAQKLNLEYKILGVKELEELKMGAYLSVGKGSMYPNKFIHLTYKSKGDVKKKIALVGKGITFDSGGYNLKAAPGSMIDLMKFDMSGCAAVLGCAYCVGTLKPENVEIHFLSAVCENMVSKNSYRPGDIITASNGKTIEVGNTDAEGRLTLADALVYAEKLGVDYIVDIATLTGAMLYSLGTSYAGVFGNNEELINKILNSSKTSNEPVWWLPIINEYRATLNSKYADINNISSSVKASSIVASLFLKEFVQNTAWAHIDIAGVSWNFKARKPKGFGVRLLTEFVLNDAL

cells [1] = format: functional, cell-based
cells [2] = format: functional, cell-based; remark: listed apart in the source
[3] = Luminescence Cell-Based Dose Confirmation HTS to Identify Activators of 5'UTR Stem-Loop Driven Alpha-Synuclein mRNA Translation in H4 Neuroglioblastoma Cells. [Related pubchem assays: 1829 (Project Summary), 1814 (Primary HTS)]; format: functional
[4] = Luminescence Cell-Based Dose Response HTS to Identify Activators of Luciferase Translation or Activity in H4 […] Cells. [Related pubchem assays: 1829 (Project Summary), 1814 (Primary HTS)]; format: functional
H4 = assay: Luminescence Cell-Based Dose Response HTS to Identify Activators of 5'UTR Stem-Loop Driven Prion Protein mRNA Translation in H4 Neuroglioblastoma Cells. [Related pubchem assays: 1829 (Project Summary), 1814 (Primary HTS)]; format: functional; conditions: Homo sapiens
[5] = molecular target: Eukaryotic translation initiation factor 4E (Mus musculus, UniProt P63073); assay: blockers of eIF4G binding by eIF4E – biochemical, TR-FRET, dose response (AID 855); format: functional;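 note: potency for disrupting eIF4E binding to eIF4GI seen as loss of FRET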
Chain of Eukaryotic translation initiation factor 4E (P63073 whole entry): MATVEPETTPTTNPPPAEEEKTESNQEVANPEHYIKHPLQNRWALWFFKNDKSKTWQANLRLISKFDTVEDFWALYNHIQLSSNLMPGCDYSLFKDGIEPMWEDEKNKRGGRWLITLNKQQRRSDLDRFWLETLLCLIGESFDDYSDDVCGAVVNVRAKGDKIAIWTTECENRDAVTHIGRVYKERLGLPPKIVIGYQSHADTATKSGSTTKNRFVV

[6] = molecular target: Voltage-dependent T-type calcium channel subunit alpha-1H (Homo sapiens, UniProt O95180); format: functional;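 note: channel activity triggered by adding a high calcium stimulation buffer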
Chain of Voltage-dependent T-type calcium channel subunit alpha-1H (O95180 whole entry): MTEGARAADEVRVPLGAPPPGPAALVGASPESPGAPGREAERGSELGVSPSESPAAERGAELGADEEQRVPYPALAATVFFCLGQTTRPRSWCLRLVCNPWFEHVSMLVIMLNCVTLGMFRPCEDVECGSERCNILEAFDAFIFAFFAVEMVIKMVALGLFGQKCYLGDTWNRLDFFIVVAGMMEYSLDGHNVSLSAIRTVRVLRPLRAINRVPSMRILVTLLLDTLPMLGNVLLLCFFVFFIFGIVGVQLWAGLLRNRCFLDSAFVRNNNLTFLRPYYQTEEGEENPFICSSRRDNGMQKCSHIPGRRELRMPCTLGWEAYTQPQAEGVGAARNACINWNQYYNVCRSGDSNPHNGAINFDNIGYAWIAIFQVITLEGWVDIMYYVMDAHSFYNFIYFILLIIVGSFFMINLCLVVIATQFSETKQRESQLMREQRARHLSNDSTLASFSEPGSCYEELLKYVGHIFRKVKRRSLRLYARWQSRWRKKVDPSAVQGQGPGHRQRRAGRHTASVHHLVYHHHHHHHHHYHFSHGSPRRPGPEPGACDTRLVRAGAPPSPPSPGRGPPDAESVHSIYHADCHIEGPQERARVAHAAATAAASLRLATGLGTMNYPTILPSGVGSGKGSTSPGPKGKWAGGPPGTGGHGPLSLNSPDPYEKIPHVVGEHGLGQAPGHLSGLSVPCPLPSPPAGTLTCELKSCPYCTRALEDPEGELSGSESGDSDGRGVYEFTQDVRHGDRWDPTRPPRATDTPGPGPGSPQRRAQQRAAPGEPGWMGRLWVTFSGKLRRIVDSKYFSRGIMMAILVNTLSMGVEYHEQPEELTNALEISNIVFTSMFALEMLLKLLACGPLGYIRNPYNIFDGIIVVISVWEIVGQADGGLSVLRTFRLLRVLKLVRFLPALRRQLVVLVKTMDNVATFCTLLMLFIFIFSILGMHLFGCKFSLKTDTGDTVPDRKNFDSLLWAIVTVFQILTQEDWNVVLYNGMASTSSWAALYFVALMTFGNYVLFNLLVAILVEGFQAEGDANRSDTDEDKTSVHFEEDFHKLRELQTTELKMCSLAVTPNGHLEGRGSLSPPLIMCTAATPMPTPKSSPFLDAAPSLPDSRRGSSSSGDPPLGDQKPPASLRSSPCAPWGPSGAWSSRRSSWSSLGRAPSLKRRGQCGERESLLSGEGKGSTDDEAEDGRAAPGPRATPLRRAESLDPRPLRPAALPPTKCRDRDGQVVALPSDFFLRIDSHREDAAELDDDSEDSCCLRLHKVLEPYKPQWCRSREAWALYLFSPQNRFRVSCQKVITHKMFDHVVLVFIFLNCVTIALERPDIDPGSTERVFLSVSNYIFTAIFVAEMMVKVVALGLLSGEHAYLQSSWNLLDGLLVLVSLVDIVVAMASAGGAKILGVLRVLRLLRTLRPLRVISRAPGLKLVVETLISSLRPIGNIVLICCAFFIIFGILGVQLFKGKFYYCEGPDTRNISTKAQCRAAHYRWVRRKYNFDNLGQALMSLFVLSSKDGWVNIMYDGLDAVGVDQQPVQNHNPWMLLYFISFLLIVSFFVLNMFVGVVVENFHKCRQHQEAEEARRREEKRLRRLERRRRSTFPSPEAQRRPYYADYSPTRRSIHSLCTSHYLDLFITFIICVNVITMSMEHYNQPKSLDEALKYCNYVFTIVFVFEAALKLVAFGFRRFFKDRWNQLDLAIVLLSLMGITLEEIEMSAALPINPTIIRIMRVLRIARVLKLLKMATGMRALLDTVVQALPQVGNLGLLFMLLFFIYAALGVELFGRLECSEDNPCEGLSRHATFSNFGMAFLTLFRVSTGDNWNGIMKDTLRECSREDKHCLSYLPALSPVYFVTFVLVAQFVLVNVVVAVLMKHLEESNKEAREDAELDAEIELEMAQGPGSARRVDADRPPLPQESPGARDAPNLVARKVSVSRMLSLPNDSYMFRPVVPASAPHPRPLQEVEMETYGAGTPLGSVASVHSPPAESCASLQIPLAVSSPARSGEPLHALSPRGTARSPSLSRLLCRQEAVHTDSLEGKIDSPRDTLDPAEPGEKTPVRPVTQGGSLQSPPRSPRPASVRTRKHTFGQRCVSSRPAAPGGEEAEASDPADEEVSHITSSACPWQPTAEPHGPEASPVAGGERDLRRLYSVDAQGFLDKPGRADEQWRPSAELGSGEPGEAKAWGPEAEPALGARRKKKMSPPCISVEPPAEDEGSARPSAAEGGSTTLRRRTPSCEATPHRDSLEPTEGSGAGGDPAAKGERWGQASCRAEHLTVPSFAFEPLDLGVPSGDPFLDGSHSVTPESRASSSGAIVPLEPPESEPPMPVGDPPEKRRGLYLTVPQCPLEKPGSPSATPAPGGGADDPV

[7] = viability loss in Vero cells – cytotoxicity control for Vif-APOBEC3G degradation inhibitor project, dose response (AID 1117358); format: functional; conditions: Vero
[8] = A Cell Based Secondary Assay To Explore Cytotoxicity of Compounds that Sensitize Mycobacterium Tuberculosis to Beta-Lactam Antibiotics.; format: functional
CAAX prenyl protease 2 = molecular target: T3, CAAX prenyl protease 2 (Saccharomyces cerevisiae S288c, UniProt Q03530); format: biochemical
T3 sequence (Q03530 whole entry): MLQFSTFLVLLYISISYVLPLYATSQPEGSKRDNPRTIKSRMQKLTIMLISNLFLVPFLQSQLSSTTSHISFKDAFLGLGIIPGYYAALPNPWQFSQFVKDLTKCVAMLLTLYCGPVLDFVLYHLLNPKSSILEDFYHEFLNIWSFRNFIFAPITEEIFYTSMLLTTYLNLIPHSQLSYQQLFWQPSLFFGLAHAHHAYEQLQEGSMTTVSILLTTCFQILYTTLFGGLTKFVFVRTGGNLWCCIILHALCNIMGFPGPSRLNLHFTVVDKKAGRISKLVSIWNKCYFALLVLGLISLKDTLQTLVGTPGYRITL

Trypsin = Trypsin (Sus scrofa, UniProt P00761); assay: trypsin protease activity blockade – biochemical, quenched peptide fluorescence, cherry-pick, selectivity assay for Rce1 protease inhibitor project, dose response (AID 488789)
Chain of Trypsin (P00761 whole entry): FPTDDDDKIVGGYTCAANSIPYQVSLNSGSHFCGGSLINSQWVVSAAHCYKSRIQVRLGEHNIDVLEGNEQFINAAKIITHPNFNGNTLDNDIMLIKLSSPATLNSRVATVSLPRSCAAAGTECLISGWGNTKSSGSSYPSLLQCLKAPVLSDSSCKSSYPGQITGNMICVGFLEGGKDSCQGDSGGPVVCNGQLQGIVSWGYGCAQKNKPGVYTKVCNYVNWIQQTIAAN

Compound: COC(=O)c1[nH]c(C)c(C(=O)C2=C(O)C(=O)N(CCN(C)C)C2c2cccc(OC)c2OC)c1C (configuration not stated)
- IC50 (Coagulation factor XII): > 50 µM (inactive)

Compound: Cn1c(Cl)nc2c1c(=O)n(Cc1cccc(Br)c1)c(=O)n2C
- IC50 (Prothrombin): > 50 µM (not active)

Compound: Cn1c(SCC(=O)NCc2ccc3c(c2)OCO3)nnc1C1COc2ccccc2O1 (configuration not stated)
- IC50 (Leucine aminopeptidase): < 1 µM (active)

Compound: Cn1c(NCCc2ccccc2)cc(=O)n(C)c1=O
- IC50 (Coagulation factor XII): > 50 µM (inactive)
- EC50 (cells [1]): > 29.9 µM (inactive)
- IC50 (cells [2]): > 29.9 µM (inactive)

Compound: CCC(=O)Oc1ccc2c(C)c(Cl)c(=O)oc2c1
- IC50 (Prothrombin): > 50 µM (not active)

Compound: O=C(CCS(=O)(=O)c1cccs1)N1CCCC1
- EC50 [3]: > 120 µM (not active)
- EC50 [4]: > 120 µM (not active)
- EC50 (H4): 17.8 µM (active)
- IC50 [5]: > 64 µM (inactive)

Compound: Cc1ccc(S(=O)(=O)c2nc(-c3ccccc3)oc2NCc2cccnc2)cc1
- EC50 [6]: 8.55 µM (active)

Compound: Cc1c(C=O)c(C=O)c(C)n1Cc1ccccc1
- CC50 [7]: 6.52 µM (active)
- CC50 [8]: 4.47 µM (active)

Compound: CCc1cc(=O)oc2c3c(cc(OCC(=O)NCCCC(=O)O)c12)OC(C)(C)CC3
- AC50 (CAAX prenyl protease 2): 12.1 µM (active)
- AC50 (Trypsin): 7.16 µM (active)

Compound: COc1ccc(-c2c(-c3ccsc3)oc3ccc(N4CCOCC4)cc23)cn1
- AC50 (Trypsin): 9.22 µM (active)

Compound: COc1cc(/C=N/NC(=O)C2c3ccccc3Oc3ccccc32)ccc1O
- IC50 [5]: > 64 µM (inactive)

Compound: O=C(NC1CCCCC1)N1CCS/C1=N\c1ccccc1
- EC50 [6]: 7.51 µM (active)

Compound: CC1=NNC(=O)C1CCC(=O)N/N=C\c1ccc(Cl)c(Cl)c1 (configuration not stated)
- IC50 (Leucine aminopeptidase): 15 µM (active)

Compound: Cc1ccc(/C=N/NC(=O)c2nnn(-c3nonc3N)c2C(C)C)o1
- AC50 (CAAX prenyl protease 2): 2.96 µM (active)

Compound: C/C(=N\NC(=O)Cc1c(C)n[nH]c1O)c1ccc2ccccc2c1
- IC50 (Leucine aminopeptidase): 14 µM (active)

From ChEMBL document CHEMBL1201862, “PubChem BioAssay data set” (2004)
